In ChEMBL document CHEMBL1201862, “PubChem BioAssay data set” (2004) one finds EC50, IC50 and AC50 data, which are given here for 27 compounds.

Assay [1] concerns the target T1, Short transient receptor potential channel 4 (Mus musculus, UniProt Q9QUQ5).
T1 sequence (Q9QUQ5 whole entry): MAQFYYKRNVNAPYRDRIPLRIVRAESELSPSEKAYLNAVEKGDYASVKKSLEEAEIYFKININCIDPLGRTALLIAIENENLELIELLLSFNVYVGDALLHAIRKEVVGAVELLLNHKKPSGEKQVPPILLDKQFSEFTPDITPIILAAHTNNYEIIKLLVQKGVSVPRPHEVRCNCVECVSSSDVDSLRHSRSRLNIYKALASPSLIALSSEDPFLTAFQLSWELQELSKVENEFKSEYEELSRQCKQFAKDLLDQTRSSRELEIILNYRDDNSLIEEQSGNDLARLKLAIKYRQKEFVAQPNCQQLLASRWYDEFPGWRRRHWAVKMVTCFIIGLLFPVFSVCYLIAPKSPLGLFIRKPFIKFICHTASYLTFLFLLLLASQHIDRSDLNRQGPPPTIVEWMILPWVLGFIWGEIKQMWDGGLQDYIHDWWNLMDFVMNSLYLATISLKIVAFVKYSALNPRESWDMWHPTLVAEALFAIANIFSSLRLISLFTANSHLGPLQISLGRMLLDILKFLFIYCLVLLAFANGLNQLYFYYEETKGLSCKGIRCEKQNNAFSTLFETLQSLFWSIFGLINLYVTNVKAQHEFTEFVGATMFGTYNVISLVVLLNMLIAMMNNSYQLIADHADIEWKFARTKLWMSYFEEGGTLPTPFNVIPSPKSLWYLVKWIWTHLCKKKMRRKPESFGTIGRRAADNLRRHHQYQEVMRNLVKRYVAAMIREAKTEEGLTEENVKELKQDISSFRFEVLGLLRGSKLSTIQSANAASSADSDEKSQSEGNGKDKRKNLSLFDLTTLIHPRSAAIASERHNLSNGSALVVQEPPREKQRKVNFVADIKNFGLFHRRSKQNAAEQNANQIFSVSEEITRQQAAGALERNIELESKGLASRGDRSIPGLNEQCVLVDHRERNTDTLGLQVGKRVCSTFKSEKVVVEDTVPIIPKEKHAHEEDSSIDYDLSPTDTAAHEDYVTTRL
As to the kind of experiment: block of DAMGO-driven TRPC4 calcium entry – cell-based, HEK293 TRPC4/mu-opioid, Fluo-4 calcium, dose response (AID 434942).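 Note: potency of inhibitors blocking the TRPC4 calcium response.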 In kind it is functional.

The target in assay [2] is Induced myeloid leukemia cell differentiation protein Mcl-1 (Homo sapiens, UniProt Q07820). The format is functional.
Sequence of Induced myeloid leukemia cell differentiation protein Mcl-1 (Q07820 whole entry): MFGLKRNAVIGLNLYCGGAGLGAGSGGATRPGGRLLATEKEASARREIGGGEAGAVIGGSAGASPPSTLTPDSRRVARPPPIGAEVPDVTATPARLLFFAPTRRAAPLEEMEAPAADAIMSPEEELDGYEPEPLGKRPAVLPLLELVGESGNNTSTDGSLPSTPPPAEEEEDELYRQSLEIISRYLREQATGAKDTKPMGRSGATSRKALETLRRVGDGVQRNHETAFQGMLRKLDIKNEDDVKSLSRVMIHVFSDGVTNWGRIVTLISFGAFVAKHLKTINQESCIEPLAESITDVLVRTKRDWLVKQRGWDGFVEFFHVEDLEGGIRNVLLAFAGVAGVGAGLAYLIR
The target in assay [3] is FAD-linked sulfhydryl oxidase ALR (Homo sapiens, UniProt P55789). As to the kind of experiment: ALR-catalysed DTT oxidation blockers – biochemical, H2O2 detection, luminescence, cherry-pick, dose response (AID 493248).
Sequence of FAD-linked sulfhydryl oxidase ALR (P55789 whole entry): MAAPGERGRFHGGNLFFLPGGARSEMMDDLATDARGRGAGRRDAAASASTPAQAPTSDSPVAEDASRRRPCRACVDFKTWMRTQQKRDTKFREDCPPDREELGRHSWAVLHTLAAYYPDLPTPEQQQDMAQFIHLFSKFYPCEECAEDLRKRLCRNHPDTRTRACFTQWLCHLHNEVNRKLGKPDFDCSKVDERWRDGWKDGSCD
For another assay, the system named is H9c2. The experiment in a line: cells. In kind it is functional, cell-based. Conditions: Rattus norvegicus, H9c2, Myocardium.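 Note: confirmatory concentration-response retest of ultra-high-throughput screening hits for modulation of myocardial damage; cell death induced by hydrogen peroxide oxidative stress; compound pretreatment for 60 min then peroxide exposure for 2 h; potency is for protecting the cells against peroxide damage rather than for killing them.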
Assay [4] addresses T2, Rac GTPase-activating protein 1 (Homo sapiens, UniProt Q9H0H5).
T2 sequence (Q9H0H5 whole entry): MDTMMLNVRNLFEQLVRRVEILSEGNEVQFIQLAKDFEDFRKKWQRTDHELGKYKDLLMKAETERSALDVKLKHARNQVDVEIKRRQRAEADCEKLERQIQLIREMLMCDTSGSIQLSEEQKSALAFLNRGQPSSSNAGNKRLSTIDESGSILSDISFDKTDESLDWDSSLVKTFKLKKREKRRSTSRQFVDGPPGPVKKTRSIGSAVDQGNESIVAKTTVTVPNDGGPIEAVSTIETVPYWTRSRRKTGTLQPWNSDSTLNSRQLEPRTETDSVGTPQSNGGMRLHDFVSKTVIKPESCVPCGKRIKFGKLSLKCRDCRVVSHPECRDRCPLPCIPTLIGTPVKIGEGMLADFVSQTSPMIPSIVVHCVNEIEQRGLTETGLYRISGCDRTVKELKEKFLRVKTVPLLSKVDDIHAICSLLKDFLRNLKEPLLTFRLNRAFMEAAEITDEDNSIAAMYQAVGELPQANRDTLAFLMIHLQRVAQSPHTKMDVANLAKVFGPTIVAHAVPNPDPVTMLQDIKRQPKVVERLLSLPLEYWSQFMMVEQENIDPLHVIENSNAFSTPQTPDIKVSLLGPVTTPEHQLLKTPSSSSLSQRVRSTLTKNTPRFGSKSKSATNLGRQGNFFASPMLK
As to the kind of experiment: blockers of MgcRacGAP-driven Rac1 GTP hydrolysis – biochemical, ADP Hunter fluorescence, primary and confirmatory, confirmation (AID 624330). The format is functional.

The nature of assay [5]: Luminescence Cell-Based Dose Confirmation HTS to Identify Activators of 5'UTR Stem-Loop Driven Alpha-Synuclein mRNA Translation in H4 Neuroglioblastoma Cells. [Related pubchem assays: 1829 (Project Summary), 1814 (Primary HTS)]. The format is functional.
The nature of assay [6]: Luminescence Cell-Based Dose Response HTS to Identify Activators of Luciferase Translation or Activity in H4 […] Cells. [Related pubchem assays: 1829 (Project Summary), 1814 (Primary HTS)]. The format is functional.
The test system of another assay is H4. As to the kind of experiment: Luminescence Cell-Based Dose Response HTS to Identify Activators of 5'UTR Stem-Loop Driven Prion Protein mRNA Translation in H4 Neuroglioblastoma Cells. [Related pubchem assays: 1829 (Project Summary), 1814 (Primary HTS)]. In kind it is functional. To be noted: Homo sapiens.
The target in assay [7] is T3, Calpain-2 catalytic subunit (Sus scrofa, UniProt P43367).
T3 sequence (P43367 whole entry): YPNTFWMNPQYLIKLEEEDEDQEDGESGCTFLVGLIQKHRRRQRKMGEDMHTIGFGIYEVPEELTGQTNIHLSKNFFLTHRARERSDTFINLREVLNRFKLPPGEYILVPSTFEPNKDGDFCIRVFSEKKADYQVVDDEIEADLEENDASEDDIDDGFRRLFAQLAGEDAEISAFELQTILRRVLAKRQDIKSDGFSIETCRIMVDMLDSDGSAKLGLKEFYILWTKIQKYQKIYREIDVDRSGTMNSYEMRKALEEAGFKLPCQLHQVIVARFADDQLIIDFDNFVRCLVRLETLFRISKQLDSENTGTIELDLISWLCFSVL
As to the kind of experiment: m-calpain protease blockers, concentration series – biochemical, fluorogenic peptide substrate, dose response (AID 1420). In kind it is functional.

For assay [8], the target named is T4, Ubiquitin-conjugating enzyme E2 N (Homo sapiens, UniProt P61088).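 Note: Dose-response confirmation in a TR-FRET assay detecting UBC13-driven polyubiquitin chain formation, inhibition measured.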
T4 sequence (P61088 whole entry): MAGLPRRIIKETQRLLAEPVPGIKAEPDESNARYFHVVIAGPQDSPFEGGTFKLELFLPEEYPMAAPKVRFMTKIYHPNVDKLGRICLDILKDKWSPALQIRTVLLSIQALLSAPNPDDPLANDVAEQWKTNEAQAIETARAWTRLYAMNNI
In kind it is functional.

Assay [9] in a line: reduction of Shn3 3'UTR-driven luciferase in osteoblasts – cell-based, Clone20 osteoblasts, firefly luciferase, cherry-picked, dose response (AID 624132).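 Note: firefly luciferase luminescence from reporter carrying the Shn3 3'UTR in osteoblasts.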 In kind it is functional.
Assay [10] in a line: loss of viability in HepG2 cells – cell-based, CellTiter-Glo, cherry-picked, cytotoxicity control for Shn3 inhibitor project, dose response (AID 624134). The format is functional.
Assay [11] is described as follows: non-specific 3'UTR reporter inhibition in Clone20-Shn3RL – cell-based, Renilla luciferase, cherry-picked, counter-screen for Shn3 inhibitor project, dose response (AID 624133). The format is functional.
In assay [12] the test system is BJ. As to the kind of experiment: BJ-TERT fibroblast viability loss – cell-based, RAS-independent, luminescence, dose response (AID 1933). To be noted: Homo sapiens. The format is functional.
Assay [13] deals with BJ. The experiment in a line: cells. Conditions: Homo sapiens. In kind it is functional, cell-based.
Assay [14] relates to BJ. As to the kind of experiment: BJ-TERT-LT-ST fibroblast viability loss – cell-based, RAS-independent, luminescence, dose response (AID 1935).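 Note: BJ fibroblasts immortalized with TERT plus LT and ST oncogenes.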 Conditions: Homo sapiens. In kind it is functional.
Assay [15] in a line: DRD fibroblast viability loss – cell-based, non-viral oncogenic, luminescence, dose response (AID 1934). In kind it is functional. Conditions: Homo sapiens.
The target of the next assay is Cytochrome P450 2C19 (Homo sapiens, UniProt P33261). As to the kind of experiment: Cytochrome panel assay with activity outcomes. Panel member name: p450-cyp2c19 Compounds with AC50 equal or less than 10 uM are considered active. In kind it is functional. Conditions: read-out: AC50.
Sequence of Cytochrome P450 2C19 (P33261 whole entry): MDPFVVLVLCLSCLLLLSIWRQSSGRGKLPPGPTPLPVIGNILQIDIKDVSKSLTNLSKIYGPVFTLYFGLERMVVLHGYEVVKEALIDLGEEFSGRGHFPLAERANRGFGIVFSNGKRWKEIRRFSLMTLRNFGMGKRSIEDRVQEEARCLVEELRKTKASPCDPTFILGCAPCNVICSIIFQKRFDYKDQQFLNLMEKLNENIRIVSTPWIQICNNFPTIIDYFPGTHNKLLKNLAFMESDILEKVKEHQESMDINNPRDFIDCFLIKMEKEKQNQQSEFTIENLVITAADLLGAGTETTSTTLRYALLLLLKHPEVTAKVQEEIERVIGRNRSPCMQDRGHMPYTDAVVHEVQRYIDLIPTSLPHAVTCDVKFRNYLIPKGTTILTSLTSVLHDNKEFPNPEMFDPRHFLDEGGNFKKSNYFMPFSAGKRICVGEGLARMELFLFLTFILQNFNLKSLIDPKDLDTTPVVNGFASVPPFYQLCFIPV
A further assay deals with Cytochrome P450 2D6 (Homo sapiens, UniProt P10635).
Sequence of Cytochrome P450 2D6 (P10635 whole entry): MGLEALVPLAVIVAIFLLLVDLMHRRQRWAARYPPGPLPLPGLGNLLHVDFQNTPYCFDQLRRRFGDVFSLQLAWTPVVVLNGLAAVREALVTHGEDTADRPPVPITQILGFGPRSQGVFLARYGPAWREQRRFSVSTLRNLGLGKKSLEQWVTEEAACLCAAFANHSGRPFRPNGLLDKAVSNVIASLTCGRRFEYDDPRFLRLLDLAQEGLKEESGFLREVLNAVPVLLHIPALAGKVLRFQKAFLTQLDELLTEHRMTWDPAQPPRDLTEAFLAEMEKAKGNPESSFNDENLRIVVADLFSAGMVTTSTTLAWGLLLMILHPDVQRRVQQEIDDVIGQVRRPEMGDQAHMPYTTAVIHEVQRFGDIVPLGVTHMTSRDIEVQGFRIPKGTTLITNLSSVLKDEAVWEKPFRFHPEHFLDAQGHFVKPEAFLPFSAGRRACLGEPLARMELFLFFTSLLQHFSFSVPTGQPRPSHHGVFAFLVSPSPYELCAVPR
The target in a further assay is Cytochrome P450 2C9 (Homo sapiens, UniProt P11712).
Sequence of Cytochrome P450 2C9 (P11712 whole entry): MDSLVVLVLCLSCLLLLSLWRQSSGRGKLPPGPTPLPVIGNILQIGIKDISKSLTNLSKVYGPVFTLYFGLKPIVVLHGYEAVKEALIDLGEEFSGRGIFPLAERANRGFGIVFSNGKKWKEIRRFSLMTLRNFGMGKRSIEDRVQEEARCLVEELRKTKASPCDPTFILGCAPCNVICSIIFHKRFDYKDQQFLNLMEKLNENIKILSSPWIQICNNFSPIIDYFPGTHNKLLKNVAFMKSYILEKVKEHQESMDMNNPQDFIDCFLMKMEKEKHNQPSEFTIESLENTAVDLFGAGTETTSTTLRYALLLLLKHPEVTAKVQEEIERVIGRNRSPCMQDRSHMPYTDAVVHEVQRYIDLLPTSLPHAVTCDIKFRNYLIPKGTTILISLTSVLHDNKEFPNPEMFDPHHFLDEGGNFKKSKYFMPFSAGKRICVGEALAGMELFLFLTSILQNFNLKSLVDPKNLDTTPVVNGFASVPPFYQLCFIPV
The next assay concerns the target Large T antigen (Simian virus 40, UniProt P03070). In kind it is functional, Betapolyomavirus macacae.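 Note: Confirmatory-stage PubChem screen for compounds that inhibit SV40 T antigen.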

Active and inactive are the calls of the source.

Sequence of Large T antigen (P03070 whole entry): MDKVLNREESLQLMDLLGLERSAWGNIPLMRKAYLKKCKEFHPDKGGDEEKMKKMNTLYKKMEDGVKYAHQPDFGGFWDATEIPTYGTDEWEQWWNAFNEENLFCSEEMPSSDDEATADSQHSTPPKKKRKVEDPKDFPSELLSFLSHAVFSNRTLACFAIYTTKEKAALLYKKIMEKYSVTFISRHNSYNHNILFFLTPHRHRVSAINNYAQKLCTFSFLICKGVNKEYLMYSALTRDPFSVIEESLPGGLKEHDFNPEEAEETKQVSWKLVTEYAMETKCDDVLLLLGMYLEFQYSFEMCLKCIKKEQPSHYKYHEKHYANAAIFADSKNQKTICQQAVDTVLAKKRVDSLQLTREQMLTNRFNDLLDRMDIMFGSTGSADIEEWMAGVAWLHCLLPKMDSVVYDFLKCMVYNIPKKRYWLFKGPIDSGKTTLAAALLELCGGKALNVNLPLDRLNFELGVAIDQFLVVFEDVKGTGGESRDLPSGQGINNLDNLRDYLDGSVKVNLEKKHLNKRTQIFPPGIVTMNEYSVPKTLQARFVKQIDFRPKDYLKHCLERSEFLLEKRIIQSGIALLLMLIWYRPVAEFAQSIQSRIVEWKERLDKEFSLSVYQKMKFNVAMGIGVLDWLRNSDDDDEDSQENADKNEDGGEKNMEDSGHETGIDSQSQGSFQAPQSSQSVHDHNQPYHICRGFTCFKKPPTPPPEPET

`Cc1cccc(C(=O)Nc2sc(-c3ccccc3)cc2C(=O)O)c1`: in assay [1], the EC50 was 2.11 µM (active).
For the compound `Cc1cccc(NC2=NC(=O)/C(=C/C=C/c3ccco3)S2)c1`, in assay [2], the IC50 was 11.4 µM (active).
Regarding `Nc1cc(C(F)(F)F)ccc1Nc1ccccc1`, in [1], the EC50 was 4.22 µM (active). Further, in [3], the AC50 was 14.6 µM (active).
Consider `COCCCN(Cc1ccco1)C(=O)Cn1ncc2c3ccccc3nc-2c1O`, for which the IC50 in the assay with H9c2 is > 79 µM (inactive).
Regarding `COc1ccc(CN2CCN(Cc3ccccc3F)CC2)c(OC)c1`, the EC50 in assay [1] is 4.22 µM (active). Besides, the half-maximal inhibitory concentration (IC50) in assay [4] is 70.3 µM (active).
Turning to `Clc1ccccc1CSc1nc2cc[nH]cc-2n1`, the EC50 in assay [1] is 2.99 µM (active).
`NC(=O)c1ccc(-n2nnnc2Oc2ccccc2C(=O)N2CCOCC2)cc1`: the EC50 in [5] is 8.06 µM (active); in [6], 31.4 µM (inconclusive); in the assay on H4, > 120 µM (not active). Also, in assay [7], the IC50 is listed as 3.94 µM (not active).
`CCC(C)[C@H](Nc1nc(-c2ccccc2)nc2c1oc1ccccc12)C(=O)O` (stereo not given in full): the EC50 in [1] is 7.5 µM (active).
The same measure, in the same setting: the same measure for `CN=C(S)N1CCN(C(c2ccccc2)c2ccccc2)CC1`: 8.41 µM (active).
On to `CN(CC(=O)Nc1ccc(F)cc1)C(=O)CCc1nc(O)c2ccccc2n1`, for which, in the assay with H9c2, the IC50 was > 79 µM (inactive).
As to `Cc1cc(C)cc(OCC(=O)Nc2cccc(-c3nc4ncccc4o3)c2)c1`, the IC50 in the assay with H9c2 was > 79 µM (inactive).
As for `Cc1ccc(C)c(N2CCN(CCCNC(=O)CCC(=O)N3CCOc4ccc(Cl)cc43)CC2)c1`, in [8], the IC50 is > 20 µM (inactive).
For `CCn1c(NCc2c[nH]c3ccccc23)nc2ccccc21`, the EC50 in assay [1] was 3.35 µM (active).
Take `O=C(Nc1ccc2c(c1)nc1n2CCN(C2CCCCC2)C1)c1ccco1`: in assay [2], the IC50 is 6.52 µM (active).
Regarding `NS(=O)(=O)c1ccc(CCNCc2cc(Br)ccc2OCc2ccccc2F)cc1`, the IC50 in assay [7] is > 50 µM (not active). The AC50 is 4.65 µM (active) in assay [9], 36.9 µM (active) in assay [10] and 8.75 µM (active) in [11].
Consider `O=C(COC(=O)CC12CC3CC(CC(C3)C1)C2)Nc1cccnc1Cl`, for which the IC50 in assay [7] was > 50 µM (not active).
Take `CC(C)Cn1c(N)c(C(=O)COC(=O)CCc2nc(O)c3ccccc3n2)c(=O)n(C)c1=O`: in the assay on H9c2, the IC50 was > 79 µM (inactive).
For `Cc1nn2cc(-c3cccc(Cl)c3)cnc2c1Br`, the EC50 with BJ [12] was 17.4 µM (active); with BJ [13] it was 68.2 µM (active); in the assay on BJ [14], 20.3 µM (active); in assay [15], 16 µM (active).
As for `COc1cccc(NC(=O)CN(C)CC(=O)Nc2ccc(Cl)cc2[N+](=O)[O-])c1`, the IC50 in assay [7] was 24 µM (not active).
Regarding `COc1cc(C(=O)Nc2ccc(C)cc2)c2ccccc2n1`, the EC50 in the assay with BJ [12] was 1.15 µM (inconclusive); in the assay on BJ [13] it was 22.9 µM (active); in the assay on BJ [14], 12.8 µM (inconclusive); in assay [15], 0.707 µM (inconclusive).
For the compound `C#CCOCCOCCOCCNc1nc(N2CCN(C(=O)[C@H](CCCCN)n3cc([C@@H](N)CO)nn3)CC2)nc(N2CCN(C(=O)[C@H](CCCCN)n3cc([C@@H](N)CC(C)C)nn3)CC2)n1`, the IC50 in assay [8] was > 20 µM (inactive).
Consider `COc1ccc(-c2cc(C(=O)N(C)Cc3ccc(OC)c(OC)c3OC)c3ccccc3n2)cc1OC`, for which the IC50 with H9c2 was > 79 µM (inactive).
The same measure, in the same setting: under `Oc1nc2cccc(Cl)c2c2ccccc12` stands 39.6 µM (inactive).
In the case of `COc1ccc(/C=C/C(=O)Oc2cc(O)cc(O)c2)cc1`, the EC50 in [1] is 3.76 µM (active).
`CCOc1cc(/C=N/NC(N)=O)cc(Br)c1OCC(=O)Nc1cccc2ccccc12`: the IC50 with H9c2 was > 79 µM (inactive).
Regarding `COc1ccc(N(CC(=O)N/N=C/c2cccs2)S(=O)(=O)c2ccc(OC)c(OC)c2)cc1`, the AC50 is 0.0178 µM (inconclusive) on Cytochrome P450 2C19, 31.6 µM (inconclusive) at Cytochrome P450 2D6 and 4.47 µM (inconclusive) on Cytochrome P450 2C9. For the same compound, in the assay on H9c2, the IC50 was > 79 µM (inactive).
With `COc1cc(/C=N\Nc2nc(-c3cccs3)c(NC(C)=O)s2)ccc1O`, the IC50 was 27.8 µM (active) on Large T antigen and 2.72 µM (active) in assay [2].
